{
  "source": "patent US11780821B2",
  "about": "“Inhibitors of fibroblast activation protein” (Praxis Biotech LLC, priority 2017, dated 2023)",
  "key": {"[1]": {"biological_target": "T1, recombinant human FAP (rhFAP) (Homo sapiens, UniProt Q12884)", "T1 construct": "purchased R&D systems 3715-SE-010", "T1 sequence (Q12884 1-760)": "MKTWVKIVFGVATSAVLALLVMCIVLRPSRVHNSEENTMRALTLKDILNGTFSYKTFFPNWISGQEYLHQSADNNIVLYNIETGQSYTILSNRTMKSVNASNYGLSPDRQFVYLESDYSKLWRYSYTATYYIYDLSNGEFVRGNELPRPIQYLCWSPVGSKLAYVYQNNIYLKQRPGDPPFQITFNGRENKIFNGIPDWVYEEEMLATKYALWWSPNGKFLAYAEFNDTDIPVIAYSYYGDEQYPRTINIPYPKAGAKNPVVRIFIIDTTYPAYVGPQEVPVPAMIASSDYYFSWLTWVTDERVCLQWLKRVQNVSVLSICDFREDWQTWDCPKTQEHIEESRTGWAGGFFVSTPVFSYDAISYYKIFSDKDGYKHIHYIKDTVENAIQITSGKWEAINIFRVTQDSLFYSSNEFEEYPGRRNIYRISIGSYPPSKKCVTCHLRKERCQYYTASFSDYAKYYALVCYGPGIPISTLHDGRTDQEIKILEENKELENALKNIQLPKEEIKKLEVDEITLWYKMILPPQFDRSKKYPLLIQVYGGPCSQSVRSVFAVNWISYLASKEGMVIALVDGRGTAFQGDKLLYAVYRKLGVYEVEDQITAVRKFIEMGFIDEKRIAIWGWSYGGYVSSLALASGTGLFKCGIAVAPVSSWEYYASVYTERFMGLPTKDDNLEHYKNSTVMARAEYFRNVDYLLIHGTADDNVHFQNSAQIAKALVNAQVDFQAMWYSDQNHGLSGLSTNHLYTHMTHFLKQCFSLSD", "assay": "Inhibition of FAP-mediated digestion of FGF21 in vitro", "type": "biochemical", "description": "Recombinant human FGF21 (rhFGF21; Cat. No. #2539-FG-025/CF, R&D systems) was incubated overnight (16 h) at 37° C. with recombinant human FAP (rhFAP; Cat. No. #3715-SE-010, R&D systems) in digestion buffer (50 mM Tris pH 7.4, 100 mM NaCl, 0.1 mg/ml bovine serum albumin). Reactions were carried out at final concentrations of 1000 ng/mL hFGF21 and 400, 800 or 1200 ng/mL rhFAP in a volume of 100 μL. For SDS-PAGE analysis, after incubation each sample received immediately 4× Laemmli protein sample buffer (Cat. No. #161-0747, Bio-Rad) supplemented with 0.1 ml […]/10 ml aliquot and then boiled at 95° C. during 10 min. An aliquot of 15 μL of each sample were then loaded onto a reducing 20% Tris-Tricine SDS-PAGE gel. For immunoblot analysis, proteins were separated on SDS-PAGE gels and transferred to PVDF membranes (Cat. No. #1620177, Bio-Rad). […] Proteins were detected using the ECL Western Blotting Substrate (Cat. No. #32106, Thermo Fisher Scientific) and visualized using a ChemiDoc™ Imaging System (Biorad) and Image lab software v5.2.1 build 11. […]\nAdditionally, the IC50 for FAP-mediated proteolytic cleavage of FGF21, was determined in the using a serial dilution of compound 13 (an exemplary compound)."}, "[2]": {"system": "endogenous FAP in plasma", "assay": "PD study in hamsters: plasma FAP activity and endogenous FGF21", "type": "in vivo, Golden Syrian hamsters", "conditions": "hamster, 1 mg/kg IV or 10 mg/kg PO", "description": "To assess the effect of FAP inhibition by an exemplary compound over the cleavage of endogenously produced FGF21, in vivo PK/PD studies were conducted in male Golden Syrian hamsters following single intravenous and oral administration of an exemplary compound.\nHamsters from Group 1 received an intravenous bolus via jugular vein of 1 mg/kg of compound 13 (an exemplary compound). On the other hand, hamsters from Group 2 received an intragastric bolus of 10 mg/kg of compound 13 (an exemplary compound) using feeding needles.\nPlasma samples were collected at 5, 10, 15, 30, 60, 120, 240, 360, 480 and 1440 minutes post-dose in both IV and PO groups. Hamsters from group 3 were not dosed and were used to collect samples of zero time point and baseline levels of FAP activity and endogenous FGF21.\nBlood aliquots (100-150 μL) were collected from jugular vein catheterized hamsters in tubes coated with EDTA-K2, mixed gently, then kept on ice and centrifuged at 2,500×g for 15 minutes at 4° C., within 1 hour of collection. […]\nLevels of endogenous hamster FGF21 in the plasma samples were quantified by using an ELISA kit (Cat. No. #EZRMFGF21-26K, Millipore) according to the manufacturer's instructions. […] Plasma samples of non-dosed animals were analyzed as a pool of plasma. […]"}},
  "data": [
    {"smiles": "N#C[C@@H]1CC(F)(F)CN1C(=O)CNC(=O)c1ccncc1-c1ccccc1", "note": "[Compound 13, (S)—N-(2-(2-cyano-4,4-difluoropyrrolidin-1-yl)-2-oxoethyl)-3-phenylisonicotinamide]", "values": [
      {"measurement": "inhibition of proteolytic processing of rhFGF21 by rhFAP (intact rhFGF21, Western blot)", "setting": "[1]; 100 and 1000 nM, 16 h at 37° C.", "result": "intact form of rhFGF21 is preserved"},
      {"measurement": "IC50 for FAP-mediated proteolytic cleavage of FGF21", "setting": "[1]; serial dilution, densitometry", "result": "nanomolar range"},
      {"measurement": "FAP activity in plasma compared with baseline levels", "setting": "[2]", "result": "diminished quickly"},
      {"measurement": "levels of total endogenous FGF21 in plasma", "setting": "[2]; ELISA", "result": "increased in the most of hamsters"}
    ]}
  ]
}
